Results published in ChEMBL document CHEMBL4765476, “MCC950, a NLRP3 inhibitor, ameliorates lipopolysaccharide-induced lung inflammation in mice” (Bioorg Med Chem, 2021).
Active and inactive are the calls of the source. No cut-off for these calls is given here.

Columns and labels:
Mus musculus [1] = experiment: Antiinflammatory activity in ICR mouse assessed as reduction in LPS-induced neutrophil level in BALF at 0.5 mg/kg, INH administered 18 hrs before LPS-stimulation and measured after 24 hrs by FACS analysis relative to control; assay type: functional; details: time 42 hrs
Mus musculus [2] = experiment: Antiinflammatory activity in ICR mouse assessed as reduction in LPS-induced macrophage level in BALF at 0.5 mg/kg, INH administered 18 hrs before LPS-stimulation and measured after 24 hrs by FACS analysis relative to control; assay type: functional; details: time 42 hrs
Mus musculus [3] = experiment: Antiinflammatory activity in ICR mouse assessed as reduction in LPS-induced lymphocyte level in BALF at 0.5 mg/kg, INH administered 18 hrs before LPS-stimulation and measured after 24 hrs by FACS analysis relative to control; assay type: functional; details: time 42 hrs
Mus musculus [4] = experiment: Antiinflammatory activity in ICR mouse assessed as reduction in LPS-induced neutrophil level in BALF at 0.5 mg/kg, ip administered 18 hrs before LPS-stimulation and measured after 24 hrs by FACS analysis relative to control; assay type: functional; details: time 42 hrs
Mus musculus [5] = experiment: Antiinflammatory activity in ICR mouse assessed as reduction in LPS-induced macrophage level in BALF at 0.5 mg/kg, ip administered 18 hrs before LPS-stimulation and measured after 24 hrs by FACS analysis relative to control; assay type: functional; details: time 42 hrs
Mus musculus [6] = experiment: Antiinflammatory activity in ICR mouse assessed as reduction in LPS-induced lymphocyte level in BALF at 0.5 mg/kg, ip administered 18 hrs before LPS-stimulation and measured after 24 hrs by FACS analysis relative to control; assay type: functional; details: time 42 hrs
Mus musculus [7] = experiment: Antiinflammatory activity in ICR mouse assessed as reduction in LPS-induced neutrophil infiltration in lungs at 0.5 mg/kg, INH administered 18 hrs before LPS-stimulation and measured after 24 hrs by H and E staining based imaging analysis relative to control; assay type: functional; details: time 42 hrs
Mus musculus [8] = experiment: Antiinflammatory activity in ICR mouse assessed as reduction in LPS-induced neutrophil infiltration in lungs at 0.5 mg/kg, ip administered 18 hrs before LPS-stimulation and measured after 24 hrs by H and E staining based imaging analysis relative to control; assay type: functional; details: time 42 hrs
Mus musculus [9] = experiment: Antiinflammatory activity in ICR mouse assessed as reduction in LPS-induced IL-1beta mRNA expression in lungs at 0.5 mg/kg, INH administered 18 hrs before LPS-stimulation and measured after 24 hrs by qRT-PCR analysis; assay type: functional, organism-based; details: time 42.0 hrs
Mus musculus [10] = experiment: Antiinflammatory activity in ICR mouse assessed as reduction in LPS-induced IL-8 mRNA expression in lungs at 0.5 mg/kg, INH administered 18 hrs before LPS-stimulation and measured after 24 hrs by qRT-PCR analysis; assay type: functional, organism-based; details: time 42.0 hrs
Mus musculus [11] = experiment: Antiinflammatory activity in ICR mouse assessed as reduction in LPS-induced TGF-beta1 mRNA expression in lungs at 0.5 mg/kg, INH administered 18 hrs before LPS-stimulation and measured after 24 hrs by qRT-PCR analysis; assay type: functional, organism-based; details: time 42.0 hrs
Mus musculus [12] = experiment: Antiinflammatory activity in ICR mouse assessed as reduction in LPS-induced MMP-9 mRNA expression in lungs at 0.5 mg/kg, INH administered 18 hrs before LPS-stimulation and measured after 24 hrs by qRT-PCR analysis; assay type: functional, organism-based; details: time 42.0 hrs
Mus musculus [13] = experiment: Antiinflammatory activity in ICR mouse assessed as reduction in LPS-induced IL-1beta mRNA expression in lungs at 0.5 mg/kg, ip administered 18 hrs before LPS-stimulation and measured after 24 hrs by qRT-PCR analysis; assay type: functional, organism-based; details: time 42.0 hrs
Mus musculus [14] = experiment: Antiinflammatory activity in ICR mouse assessed as reduction in LPS-induced IL-8 mRNA expression in lungs at 0.5 mg/kg, ip administered 18 hrs before LPS-stimulation and measured after 24 hrs by qRT-PCR analysis; assay type: functional, organism-based; details: time 42.0 hrs
Mus musculus [15] = experiment: Antiinflammatory activity in ICR mouse assessed as reduction in LPS-induced TGF-beta1 mRNA expression in lungs at 0.5 mg/kg, ip administered 18 hrs before LPS-stimulation and measured after 24 hrs by qRT-PCR analysis; assay type: functional, organism-based; details: time 42.0 hrs
Mus musculus [16] = experiment: Antiinflammatory activity in ICR mouse assessed as reduction in LPS-induced MMP-9 mRNA expression in lungs at 0.5 mg/kg, ip administered 18 hrs before LPS-stimulation and measured after 24 hrs by qRT-PCR analysis; assay type: functional, organism-based; details: time 42.0 hrs
Mus musculus [17] = experiment: Antiinflammatory activity in ICR mouse assessed as reduction in LPS-induced IL-1beta expression in lungs at 0.5 mg/kg, INH administered 18 hrs before LPS-stimulation and measured after 24 hrs by Western blot analysis; assay type: functional, organism-based; details: time 42.0 hrs
Mus musculus [18] = experiment: Antiinflammatory activity in ICR mouse assessed as reduction in LPS-induced caspase-1 expression in lungs at 0.5 mg/kg, INH administered 18 hrs before LPS-stimulation and measured after 24 hrs by Western blot analysis; assay type: functional, organism-based; details: time 42.0 hrs
Mus musculus [19] = experiment: Antiinflammatory activity in ICR mouse assessed as reduction in LPS-induced IL-1beta expression in lungs at 0.5 mg/kg, ip administered 18 hrs before LPS-stimulation and measured after 24 hrs by Western blot analysis; assay type: functional, organism-based; details: time 42.0 hrs
Mus musculus [20] = experiment: Antiinflammatory activity in ICR mouse assessed as reduction in LPS-induced caspase-1 expression in lungs at 0.5 mg/kg, ip administered 18 hrs before LPS-stimulation and measured after 24 hrs by Western blot analysis; assay type: functional, organism-based; details: time 42.0 hrs
Mus musculus [21] = experiment: Antiinflammatory activity in ICR mouse assessed as reduction in LPS-induced IL-1beta expression in serum at 0.5 mg/kg, INH administered 18 hrs before LPS-stimulation and measured after 24 hrs by ELISA; assay type: functional, organism-based; details: time 42.0 hrs
Mus musculus [22] = experiment: Antiinflammatory activity in ICR mouse assessed as reduction in LPS-induced IL-18 expression in serum at 0.5 mg/kg, INH administered 18 hrs before LPS-stimulation and measured after 24 hrs by ELISA; assay type: functional, organism-based; details: time 42.0 hrs
Mus musculus [23] = experiment: Antiinflammatory activity in ICR mouse assessed as reduction in LPS-induced IL-1beta expression in serum at 0.5 mg/kg, ip administered 18 hrs before LPS-stimulation and measured after 24 hrs by ELISA; assay type: functional, organism-based; details: time 42.0 hrs
Mus musculus [24] = experiment: Antiinflammatory activity in ICR mouse assessed as reduction in LPS-induced IL-18 expression in serum at 0.5 mg/kg, ip administered 18 hrs before LPS-stimulation and measured after 24 hrs by ELISA; assay type: functional, organism-based

Work on `C[C@@H]1C[C@H]2[C@@H]3CCC4=CC(=O)C=C[C@]4(C)[C@@]3(F)[C@@H](O)C[C@]2(C)[C@@]1(O)C(=O)CO` [DEXAMETHASONE] yielded an inhibition in vivo at 0.5 mg/kg (Mus musculus [1]) of 72.9%, an inhibition in vivo at 0.5 mg/kg (Mus musculus [2]) of 40.9% and an inhibition in vivo at 0.5 mg/kg (Mus musculus [3]) of 30.6%. It also gave an inhibition in vivo at 0.5 mg/kg (Mus musculus [4]) of 66.9%, an inhibition in vivo at 0.5 mg/kg (Mus musculus [5]) of 75.1% and an inhibition in vivo at 0.5 mg/kg (Mus musculus [6]) of 46.1%. The inhibition in vivo at 0.5 mg/kg (Mus musculus [7]) was 55.9%, the inhibition in vivo at 0.5 mg/kg (Mus musculus [8]) was 58.7% and the inhibition (Mus musculus [9]) was “Active”. For the same compound, the inhibition (Mus musculus [10]) was “Active”, the inhibition (Mus musculus [11]) was “Active” and the inhibition (Mus musculus [12]) was “Active”. For the same compound, the inhibition (Mus musculus [13]) was “Active”, the inhibition (Mus musculus [14]) was “Active” and the inhibition (Mus musculus [15]) was “Active”. For the same compound, the inhibition (Mus musculus [16]) was “Active”, the inhibition (Mus musculus [17]) was “Active” and the inhibition (Mus musculus [18]) was “Active”. The inhibition (Mus musculus [19]) was “Active”, the inhibition (Mus musculus [20]) was “Active” and the inhibition (Mus musculus [21]) was “Active”. For the same compound, the inhibition (Mus musculus [22]) was “Active”, the inhibition (Mus musculus [23]) was “Active” and the inhibition (Mus musculus [24]) was “Active”.
